Experiment [1] concerns Human immunodeficiency virus 1. As to the kind of experiment: Antiviral activity was determined against HIV-1 (clone 118) in MT-4 cells infected with HIV-1 IIIB using an XTT assay. The format is functional. The conditions noted are these: Human immunodeficiency virus 1, MT4; read-out: ED50 (the source's name). For orientation: Tetrazolium dyes change colour on reduction, which living cells bring about.

Experiment [2] has as its system Human immunodeficiency virus 1. As to the kind of experiment: (§1) Antiviral activity was determined against wild type HIV-1 in MT-4 cells infected with HIV-1 IIIB using an XTT assay. The format is functional. The settings on record: Human immunodeficiency virus 1, MT4; read-out: ED50 (the source's name).
The subject of experiment [3] is Human immunodeficiency virus 1. The description is as §1. The format is functional. The settings on record: Human immunodeficiency virus 1, MT4; read-out: ED50 (the source's name). This is another data set of the same source.
The target in experiment [4] is Human immunodeficiency virus type 1 reverse transcriptase (Human immunodeficiency virus 1, UniProt Q72547). As to the kind of experiment: Inhibitory effect on wild type HIV- 1 reverse transcriptase using rCdG as template and dGTP as substrate.
The target of experiment [5] is Human immunodeficiency virus type 1 reverse transcriptase (Human immunodeficiency virus 1, UniProt Q72547, L100I). As to the kind of experiment: Inhibitory effect on recombinant HIV- 1 reverse transcriptase which has a mutation Leu 100 to Ile 100 (clone 118).
Experiment [6] deals with Human immunodeficiency virus type 1 reverse transcriptase (Human immunodeficiency virus 1, UniProt Q72547, Y181C). As to the kind of experiment: Inhibitory effect on recombinant HIV- 1 reverse transcriptase which has a mutation Tyr 181 to Cys 181 (clone 90).
Experiment [7] deals with Human immunodeficiency virus 1. Briefly: Antiviral activity was determined against HIV-1 (clone 90) in MT-4 cells infected with HIV-1 IIIB using an XTT assay. The format is functional. The settings on record: Human immunodeficiency virus 1, MT4; read-out: ED50 (the source's name).
Experiment [8] concerns MT4. As to the kind of experiment: Compound was tested for its inhibitory effect on HIV-1 in MT-4 cells. The format is functional. The conditions noted are these: Homo sapiens, read-out: ED50 (the source's name).
In experiment [9] the test system is MT4. As to the kind of experiment: Antiviral activity was determined against wild type HIV- I in MT-4 cells infected with HIV-1 IIIB using an XTT assay which contains 15% human AB serum. The format is functional. The conditions noted are these: read-out: ED50 (the source's name).

As a reminder, the IC50 is the concentration that gives 50% inhibition.

As to `CCOc1ccc(F)c([C@H]2C[C@H]2NC(=O)Nc2ccc(Cl)cn2)c1Cl`, the EC50 in [1] came to 100 nM; in experiment [2], 16 nM; in experiment [3] it was 60 nM. Further, the figures for the IC50 in experiment [4], in experiment [5] and in [6] were 8 nM, 80 nM and 50 nM, respectively.

Consider `CCOc1ccc(F)c([C@H]2C[C@H]2NC(=O)Nc2ccc(Cl)cn2)c1F`, for which the EC50 in [1] was 750 nM; in [7] it was 270 nM; in [2], 8 nM; in experiment [3], 30 nM. Also, the IC50 in experiment [4] was 1.5 nM; in experiment [5], 80 nM; in experiment [6] it was 15 nM.

Take `S=C(NCCc1ccccn1)Nc1ccc(Br)cn1` [TROVIRDINE]: the EC50 in experiment [1] was 800 nM; in experiment [7], more than 5000 nM; in experiment [2] it was 20 nM; in experiment [3], 5000 nM. For the same compound, the values for the IC50 in [5] and in experiment [6] were 700 nM and 3200 nM, respectively.

Consider `COc1ccc(OC)c([C@H]2C[C@H]2NC(=O)Nc2ccc(Cl)cn2)c1F`, for which the EC50 was determined as 1600 nM in experiment [1], 2700 nM in experiment [7], 12 nM in experiment [2] and 100 nM in experiment [3]. The values for the IC50 in [4], in experiment [5] and in [6] were 2 nM, 270 nM and 270 nM, respectively.

Consider `CCOc1ccc(F)c([C@H]2C[C@H]2NC(=O)Nc2ccc(C#N)cn2)c1Cl`, for which the EC50 was found to be 270 nM in [1], 530 nM in experiment [7], 10 nM in experiment [2] and 20 nM in experiment [3]. For the same compound, the concentration for half-maximal inhibition (IC50) came to 4 nM in experiment [4], 80 nM in experiment [5] and 70 nM in [6].

On to `S=C(NCCc1ccccc1)Nc1nccs1`, for which the EC50 with MT4 [8] was found to be 1300 nM.

Turning to `CCc1cc(NCc2nc3c(Cl)ccc(Cl)c3o2)c(O)nc1C` [L-697661], the EC50 was 850 nM in [1], more than 11000 nM in experiment [7] and 65 nM in experiment [2]. For the same compound, the IC50 is 1600 nM in experiment [5] and 15000 nM in experiment [6].

As for `CCOc1ccc(F)c(CCNC(=O)Nc2ccc(Br)cn2)c1Cl`, the values for the EC50 in experiment [1], in [7] and in experiment [2] were 15000 nM, 8000 nM and 70 nM, respectively. The IC50 in [4] was determined as 4 nM; in [5], 1700 nM; in experiment [6], 240 nM.

Consider `COc1ccc(C(C)=O)c(F)c1CCNC(=O)Nc1ccc(Cl)cn1`, for which the EC50 in experiment [1] is more than 27000 nM; in experiment [7], more than 27000 nM; in experiment [2], 200 nM. Further, the results for the 50% inhibitory concentration (IC50) in [4], in experiment [5] and in experiment [6] were 100 nM, 1100 nM and 10000 nM, respectively.

`O=C(Nc1ccc(Cl)cn1)N[C@@H]1C[C@@H]1c1c(F)cccc1F`: the values for the EC50 (in experiment [2]; with MT4 [9]) were 6 nM and 10 nM, respectively. For the same compound, the results for the half-maximal inhibitory concentration (IC50) in experiment [4], in [5] and in [6] were 2 nM, 30 nM and 120 nM, respectively.

For `O=C(NCCc1c(F)cccc1F)Nc1ccc(Cl)cn1`, the EC50 in [1] is 32000 nM; in [7], more than 32000 nM; in experiment [2], 30 nM; in [3] it was 850 nM.

For `CCOc1ccc(Cl)c([C@H]2C[C@H]2NC(=O)Nc2ccc(Cl)cn2)c1F`, the EC50 in experiment [1] stood at 100 nM; in experiment [7] it was 100 nM; in experiment [2], 8 nM; in experiment [3], 100 nM. For the same compound, the half-inhibitory concentration (IC50) in experiment [4] was 1.5 nM; in experiment [5], 50 nM; in experiment [6], 20 nM.

In the case of `CN(C)c1ccc(F)c(CCNC(=O)Nc2ccc(Br)cn2)c1F`, the EC50 in experiment [1] was more than 25000 nM; in experiment [7], more than 25000 nM; in experiment [2], 500 nM. For the same compound, the results for the IC50 in experiment [4], in experiment [5] and in [6] were 25 nM, more than 2500 nM and 1500 nM, respectively.

In the case of `Cc1ccnc2c1NC(=O)c1cccnc1N2C1CC1` [NEVIRAPINE], the EC50 stood at 620 nM in experiment [1], 22000 nM in experiment [7] and 150 nM in experiment [2].

In the case of `CCOc1ccc(OC)c([C@H]2C[C@H]2NC(=O)Nc2ccc(Br)cn2)c1F`, the EC50 in experiment [2] was 25 nM; in experiment [3] it was 400 nM. Further, the IC50 in experiment [4] was 7 nM; in experiment [5], 240 nM; in experiment [6], 90 nM.

As to `COc1ccc(OC)c(CCNC(=O)Nc2ccc(Cl)cn2)c1F`, the EC50 in [1] came to 17000 nM; in experiment [7], 3000 nM; in experiment [2] it was 11 nM; in experiment [3] it was 90 nM. In addition, the concentration for half-maximal inhibition (IC50) was found to be 3 nM in experiment [4], 140 nM in experiment [5] and 140 nM in experiment [6].

Turning to `CCOc1ccc(OC)c(CCNC(=O)Nc2ccc(Cl)cn2)c1F`, the EC50 was 14000 nM in experiment [1], more than 27000 nM in [7] and 130 nM in [2]. Also, the half-maximal inhibitory concentration (IC50) in experiment [4] is 8 nM; in experiment [5], 2500 nM; in experiment [6], 500 nM.

The record behind these values is ChEMBL document CHEMBL1130840, “Synthesis and anti-HIV activities of urea-PETT analogs belonging to a new class of potent non-nucleoside HIV-1 reverse transcriptase inhibitors” (Bioorg Med Chem Lett, 1998).
